Measurements: paper PMC7613998, “Development of selective inhibitors of phosphatidylinositol 3-kinase C2α” (Nature Chemical Biology, 2022)

Columns and labels:
Test in all cases: biochemical
Set-up in all cases: SelectScreen Z'-LYTE purified kinase panel, per cent inhibition, mean of two points
Settings in all cases: (μM)=Km app
PAK1 = PAK1 (Homo sapiens, UniProt Q13153)
CSNK1G2 (CK1 gamma 2) = CSNK1G2 (CK1 gamma 2) (Homo sapiens, UniProt P78368)
INSR = INSR (Homo sapiens, UniProt P06213)
ERBB4 (HER4) = ERBB4 (HER4) (Homo sapiens, UniProt Q15303)
Sequence of ERBB4 (HER4) (Q15303 whole entry): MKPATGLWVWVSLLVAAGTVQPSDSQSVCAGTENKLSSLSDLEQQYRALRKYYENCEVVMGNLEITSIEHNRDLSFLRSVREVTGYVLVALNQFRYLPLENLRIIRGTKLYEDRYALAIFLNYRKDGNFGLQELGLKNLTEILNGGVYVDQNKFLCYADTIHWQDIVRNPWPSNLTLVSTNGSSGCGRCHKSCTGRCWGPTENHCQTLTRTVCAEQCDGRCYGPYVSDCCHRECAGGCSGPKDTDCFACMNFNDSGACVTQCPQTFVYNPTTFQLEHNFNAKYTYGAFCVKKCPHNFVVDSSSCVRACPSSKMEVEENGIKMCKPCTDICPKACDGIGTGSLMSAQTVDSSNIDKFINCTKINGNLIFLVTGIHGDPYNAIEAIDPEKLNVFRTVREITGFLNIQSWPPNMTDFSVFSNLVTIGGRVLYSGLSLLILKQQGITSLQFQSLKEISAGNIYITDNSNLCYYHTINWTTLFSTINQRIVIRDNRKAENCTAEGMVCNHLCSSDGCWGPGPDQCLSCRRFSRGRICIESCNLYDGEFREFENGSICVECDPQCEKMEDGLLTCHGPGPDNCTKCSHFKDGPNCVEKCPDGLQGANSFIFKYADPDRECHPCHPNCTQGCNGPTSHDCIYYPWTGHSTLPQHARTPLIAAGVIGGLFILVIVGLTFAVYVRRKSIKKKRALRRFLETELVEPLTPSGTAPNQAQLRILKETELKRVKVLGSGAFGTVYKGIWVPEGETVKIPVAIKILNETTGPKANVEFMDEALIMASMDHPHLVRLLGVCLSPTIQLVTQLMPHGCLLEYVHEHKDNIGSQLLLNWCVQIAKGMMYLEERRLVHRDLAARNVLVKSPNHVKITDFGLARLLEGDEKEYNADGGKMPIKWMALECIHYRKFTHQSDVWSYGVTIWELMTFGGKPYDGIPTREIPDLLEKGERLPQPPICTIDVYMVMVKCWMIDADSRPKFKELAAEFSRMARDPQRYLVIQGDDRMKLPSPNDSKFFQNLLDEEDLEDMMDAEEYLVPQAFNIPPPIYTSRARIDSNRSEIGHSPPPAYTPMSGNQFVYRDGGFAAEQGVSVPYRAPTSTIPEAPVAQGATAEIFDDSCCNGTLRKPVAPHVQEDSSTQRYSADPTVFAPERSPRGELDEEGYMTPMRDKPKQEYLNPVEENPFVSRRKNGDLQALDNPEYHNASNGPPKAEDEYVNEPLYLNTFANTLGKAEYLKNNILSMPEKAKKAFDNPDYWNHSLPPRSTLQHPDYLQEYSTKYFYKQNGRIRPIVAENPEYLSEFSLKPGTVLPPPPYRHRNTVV

MKNK1 (MNK1) = MKNK1 (MNK1) (Homo sapiens, UniProt Q9BUB5)
Sequence of MKNK1 (MNK1) (Q9BUB5 whole entry): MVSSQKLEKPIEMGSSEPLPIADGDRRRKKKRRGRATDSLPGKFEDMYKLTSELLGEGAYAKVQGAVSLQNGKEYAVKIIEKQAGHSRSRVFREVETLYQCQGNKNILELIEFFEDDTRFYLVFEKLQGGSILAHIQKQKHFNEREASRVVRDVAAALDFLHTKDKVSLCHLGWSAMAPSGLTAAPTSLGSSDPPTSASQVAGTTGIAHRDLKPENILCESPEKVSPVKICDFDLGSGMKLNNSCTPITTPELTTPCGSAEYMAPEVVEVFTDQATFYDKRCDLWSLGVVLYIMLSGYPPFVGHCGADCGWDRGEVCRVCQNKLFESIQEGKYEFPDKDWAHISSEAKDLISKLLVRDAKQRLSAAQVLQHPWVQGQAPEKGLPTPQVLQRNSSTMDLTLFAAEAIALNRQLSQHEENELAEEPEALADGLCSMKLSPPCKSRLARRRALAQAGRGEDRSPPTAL

PRKCE (PKC epsilon) = target: T1, PRKCE (PKC epsilon) (Homo sapiens, UniProt Q02156)
T1 sequence (Q02156 1-737): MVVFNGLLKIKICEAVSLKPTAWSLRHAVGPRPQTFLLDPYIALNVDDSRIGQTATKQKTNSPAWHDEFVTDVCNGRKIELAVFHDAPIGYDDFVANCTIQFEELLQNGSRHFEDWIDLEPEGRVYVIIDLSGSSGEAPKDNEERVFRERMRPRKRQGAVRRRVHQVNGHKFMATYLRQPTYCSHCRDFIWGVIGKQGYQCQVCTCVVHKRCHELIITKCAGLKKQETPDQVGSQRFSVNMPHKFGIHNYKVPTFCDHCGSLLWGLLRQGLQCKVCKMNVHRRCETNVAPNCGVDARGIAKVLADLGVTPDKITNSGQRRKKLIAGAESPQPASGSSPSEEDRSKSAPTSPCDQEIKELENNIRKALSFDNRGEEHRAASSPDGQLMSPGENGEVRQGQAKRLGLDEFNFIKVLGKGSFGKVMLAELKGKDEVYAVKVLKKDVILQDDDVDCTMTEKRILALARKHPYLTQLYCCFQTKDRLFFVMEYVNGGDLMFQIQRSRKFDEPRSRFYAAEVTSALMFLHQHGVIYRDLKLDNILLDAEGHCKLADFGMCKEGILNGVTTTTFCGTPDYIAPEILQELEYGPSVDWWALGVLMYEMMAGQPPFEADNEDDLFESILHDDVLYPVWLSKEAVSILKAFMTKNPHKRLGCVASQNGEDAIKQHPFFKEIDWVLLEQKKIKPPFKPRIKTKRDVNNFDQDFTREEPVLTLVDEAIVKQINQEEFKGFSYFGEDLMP

PAK2 (PAK65) = PAK2 (PAK65) (Homo sapiens, UniProt Q13177)
FGFR2 = FGFR2 (Homo sapiens, UniProt P21802)
MARK3 = MARK3 (Homo sapiens, UniProt P27448)
JAK2 = JAK2 (Homo sapiens, UniProt O60674)
Sequence of JAK2 (O60674 whole entry): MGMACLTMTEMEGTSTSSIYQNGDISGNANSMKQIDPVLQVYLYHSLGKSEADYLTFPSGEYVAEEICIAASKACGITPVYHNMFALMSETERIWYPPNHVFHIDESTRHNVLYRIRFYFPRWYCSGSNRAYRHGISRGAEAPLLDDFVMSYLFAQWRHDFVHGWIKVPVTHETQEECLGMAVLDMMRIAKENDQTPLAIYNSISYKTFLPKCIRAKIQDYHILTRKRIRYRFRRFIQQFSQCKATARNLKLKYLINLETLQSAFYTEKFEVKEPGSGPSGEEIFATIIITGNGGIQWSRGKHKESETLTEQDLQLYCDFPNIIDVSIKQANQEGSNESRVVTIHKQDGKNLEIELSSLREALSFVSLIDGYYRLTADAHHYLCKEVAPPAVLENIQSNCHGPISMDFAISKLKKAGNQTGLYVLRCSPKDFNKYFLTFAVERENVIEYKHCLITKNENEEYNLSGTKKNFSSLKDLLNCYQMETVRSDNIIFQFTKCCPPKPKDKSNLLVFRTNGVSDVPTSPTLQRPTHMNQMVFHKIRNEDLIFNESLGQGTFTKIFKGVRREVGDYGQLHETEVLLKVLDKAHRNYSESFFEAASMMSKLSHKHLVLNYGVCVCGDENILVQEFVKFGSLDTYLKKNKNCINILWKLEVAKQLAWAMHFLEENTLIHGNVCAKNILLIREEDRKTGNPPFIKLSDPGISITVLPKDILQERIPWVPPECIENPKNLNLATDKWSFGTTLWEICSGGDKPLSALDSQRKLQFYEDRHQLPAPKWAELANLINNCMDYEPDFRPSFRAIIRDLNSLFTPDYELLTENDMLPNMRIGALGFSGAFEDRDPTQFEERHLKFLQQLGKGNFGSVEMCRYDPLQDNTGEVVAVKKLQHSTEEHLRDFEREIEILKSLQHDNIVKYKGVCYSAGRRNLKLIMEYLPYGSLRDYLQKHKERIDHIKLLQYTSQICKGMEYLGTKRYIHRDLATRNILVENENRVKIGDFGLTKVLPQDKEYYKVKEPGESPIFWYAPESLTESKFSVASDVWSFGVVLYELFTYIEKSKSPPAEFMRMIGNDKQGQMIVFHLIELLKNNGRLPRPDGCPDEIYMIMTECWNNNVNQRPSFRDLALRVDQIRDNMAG

KDR (VEGFR2) = KDR (VEGFR2) (Homo sapiens, UniProt P35968)
Sequence of KDR (VEGFR2) (P35968 whole entry): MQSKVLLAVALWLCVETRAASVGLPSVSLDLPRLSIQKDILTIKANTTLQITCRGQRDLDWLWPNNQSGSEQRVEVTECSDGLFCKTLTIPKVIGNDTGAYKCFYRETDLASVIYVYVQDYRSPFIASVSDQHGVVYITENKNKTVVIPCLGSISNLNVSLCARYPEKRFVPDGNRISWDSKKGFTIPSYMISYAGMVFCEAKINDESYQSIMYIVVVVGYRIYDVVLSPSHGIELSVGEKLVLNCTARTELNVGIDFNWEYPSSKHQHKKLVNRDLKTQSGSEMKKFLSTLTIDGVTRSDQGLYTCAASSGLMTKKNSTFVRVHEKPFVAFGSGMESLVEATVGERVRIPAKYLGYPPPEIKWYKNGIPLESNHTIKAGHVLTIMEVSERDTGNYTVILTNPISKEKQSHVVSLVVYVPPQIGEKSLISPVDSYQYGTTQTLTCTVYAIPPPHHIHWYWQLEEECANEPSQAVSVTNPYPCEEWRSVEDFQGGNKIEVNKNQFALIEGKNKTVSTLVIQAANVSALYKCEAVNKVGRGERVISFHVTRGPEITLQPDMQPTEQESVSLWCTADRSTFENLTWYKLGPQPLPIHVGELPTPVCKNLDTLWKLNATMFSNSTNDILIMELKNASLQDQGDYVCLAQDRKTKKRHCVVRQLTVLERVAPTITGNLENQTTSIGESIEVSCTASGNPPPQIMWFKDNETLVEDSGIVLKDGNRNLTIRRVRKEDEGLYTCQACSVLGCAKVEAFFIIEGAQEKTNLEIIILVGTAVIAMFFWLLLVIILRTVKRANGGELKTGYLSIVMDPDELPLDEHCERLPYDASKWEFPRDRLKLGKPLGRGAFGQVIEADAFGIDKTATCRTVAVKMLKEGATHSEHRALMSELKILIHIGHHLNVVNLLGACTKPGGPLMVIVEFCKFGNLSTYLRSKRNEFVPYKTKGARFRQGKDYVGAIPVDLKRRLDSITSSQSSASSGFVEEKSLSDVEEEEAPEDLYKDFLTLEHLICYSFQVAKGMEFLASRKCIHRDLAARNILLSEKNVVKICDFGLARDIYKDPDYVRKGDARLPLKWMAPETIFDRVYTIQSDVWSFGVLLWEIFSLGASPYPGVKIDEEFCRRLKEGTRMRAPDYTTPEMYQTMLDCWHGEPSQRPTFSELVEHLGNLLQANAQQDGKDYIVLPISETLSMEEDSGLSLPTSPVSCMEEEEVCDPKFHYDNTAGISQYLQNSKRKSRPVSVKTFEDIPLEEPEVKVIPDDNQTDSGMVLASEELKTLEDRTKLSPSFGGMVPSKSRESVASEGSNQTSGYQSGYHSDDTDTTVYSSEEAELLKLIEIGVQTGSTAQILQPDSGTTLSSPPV

ABL1 = ABL1 (Homo sapiens, UniProt P00519)
ABL1 T315I = ABL1 T315I (Homo sapiens, UniProt P00519, T315I)

Sequence of CSNK1G2 (CK1 gamma 2) (P78368 whole entry): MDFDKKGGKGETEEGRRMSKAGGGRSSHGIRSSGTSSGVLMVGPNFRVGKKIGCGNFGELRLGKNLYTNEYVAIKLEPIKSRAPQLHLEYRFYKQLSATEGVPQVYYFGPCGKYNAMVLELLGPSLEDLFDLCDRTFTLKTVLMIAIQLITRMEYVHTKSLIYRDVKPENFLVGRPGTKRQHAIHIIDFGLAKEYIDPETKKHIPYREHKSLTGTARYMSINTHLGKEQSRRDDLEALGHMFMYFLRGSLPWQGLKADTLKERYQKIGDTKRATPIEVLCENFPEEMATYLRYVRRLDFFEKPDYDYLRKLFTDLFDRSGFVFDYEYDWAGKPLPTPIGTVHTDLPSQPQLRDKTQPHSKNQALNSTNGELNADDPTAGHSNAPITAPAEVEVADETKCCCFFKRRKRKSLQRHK

Row | SMILES | inhibition at 1 µM (PAK1) | inhibition at 3 µM (PAK1) | inhibition at 10 µM (PAK1) | inhibition at 1 µM (CSNK1G2 (CK1 gamma 2)) | inhibition at 3 µM (CSNK1G2 (CK1 gamma 2)) | inhibition at 10 µM (CSNK1G2 (CK1 gamma 2)) | inhibition at 1 µM (INSR) | inhibition at 3 µM (INSR) | inhibition at 10 µM (INSR) | inhibition at 1 µM (ERBB4 (HER4)) | inhibition at 3 µM (ERBB4 (HER4)) | inhibition at 10 µM (ERBB4 (HER4)) | inhibition at 1 µM (MKNK1 (MNK1)) | inhibition at 3 µM (MKNK1 (MNK1)) | inhibition at 10 µM (MKNK1 (MNK1)) | inhibition at 1 µM (PRKCE (PKC epsilon)) | inhibition at 3 µM (PRKCE (PKC epsilon)) | inhibition at 10 µM (PRKCE (PKC epsilon)) | inhibition at 1 µM (PAK2 (PAK65)) | inhibition at 3 µM (PAK2 (PAK65)) | also measured
1 | CS(=O)(=O)Nc1cccc(-c2csc(NC(=O)CSc3nc4nccnc4c(=O)n3CCc3ccccc3)n2)c1 [compound 3, PITCOIN3] | 21.4% | -0.318% | 19.2% | 7.85% | 15.6% | 13.7% | 3.69% | 4.01% | 4.66% | -2.57% | -5.3% | -3.59% | -3.26% | -7.92% | 0.613% | -17.8% | -1.73% | -22.6% | 4.79% | 5.93% | inhibition at 10 µM (PAK2 (PAK65)): 0.538%; inhibition at 1 µM (FGFR2): 6.04%; inhibition at 3 µM (FGFR2): 6.91%; inhibition at 10 µM (FGFR2): 3.2%; inhibition at 1 µM (MARK3): 1.74%; inhibition at 3 µM (MARK3): 4.94%; inhibition at 10 µM (MARK3): 6.84%; inhibition at 1 µM (JAK2): -4.04%; inhibition at 3 µM (JAK2): -2.51%; inhibition at 10 µM (JAK2): -3.7%; inhibition at 1 µM (KDR (VEGFR2)): 0.654%; inhibition at 3 µM (KDR (VEGFR2)): 10.7%; inhibition at 10 µM (KDR (VEGFR2)): 9.78%; inhibition at 1 µM (ABL1): 1.91%; inhibition at 3 µM (ABL1): 4.06%; inhibition at 10 µM (ABL1): 4%; inhibition at 1 µM (ABL1 T315I): 1.95%; inhibition at 3 µM (ABL1 T315I): 3.78%; inhibition at 10 µM (ABL1 T315I): 2.19%
2 | O=C(CSc1nc2nccnc2c(=O)n1CCc1ccccc1)Nc1nccs1 [compound 1, PITCOIN1] | -5.17% | -2.58% | -1.88% | 0.334% | 6.89% | 8.12% | 3.42% | 3.95% | 0.721% | -3.45% | -1.62% | 0.146% | -10.5% | -9.2% | -14.3% | -11.8% | 23.9% | -9.1% | 2.87% | -3.37% | inhibition at 10 µM (PAK2 (PAK65)): 3.3%; inhibition at 1 µM (FGFR2): 1.54%; inhibition at 3 µM (FGFR2): 2.27%; inhibition at 10 µM (FGFR2): -1.86%; inhibition at 1 µM (MARK3): 2.69%; inhibition at 3 µM (MARK3): 11.3%; inhibition at 10 µM (MARK3): 0.672%; inhibition at 1 µM (JAK2): 0.852%; inhibition at 3 µM (JAK2): -8.02%; inhibition at 10 µM (JAK2): -7.27%; inhibition at 1 µM (KDR (VEGFR2)): 8.19%; inhibition at 3 µM (KDR (VEGFR2)): 4.57%; inhibition at 10 µM (KDR (VEGFR2)): -0.425%; inhibition at 1 µM (ABL1): 2.07%; inhibition at 3 µM (ABL1): 2.45%; inhibition at 10 µM (ABL1): 1.9%; inhibition at 1 µM (ABL1 T315I): -2.1%; inhibition at 3 µM (ABL1 T315I): -3.21%; inhibition at 10 µM (ABL1 T315I): -2.35%
